US6653081B2, “Methods for monitoring antiretroviral therapy and guiding therapeutic decision in the treatment of HIV/AIDS” (ViroLogic, Inc., priority 2000, dated 2003)

Legend:
RTV-K103N/I135T/V245E = experiment: Phenotypic susceptibility assay, RTV-K103N/I135T/V245E; format: cell-based, HIV-1; conditions: site-directed K103N + I135T + V245E
Description: (§1) The resistance test vectors containing a functional luciferase gene cassette were constructed and host cells were transfected with the resistance test vector DNA. The resistant test vectors contained patient-derived reverse transcriptase and protease sequences that were either susceptible or resistant to the antiretroviral agents, such as nucleoside reverse transcriptase inhibitors, (NRTIs) non-nucleoside reverse transcriptase inhibitors […] protease inhibitors. The resistance test vector viral particles produced by transfecting the resistance test vector DNA into host cells, either in the presence or absence of PRIs, were used to infect target host cells grown either in the absence of NRTIs or NNRTIs, or in the presence of increasing concentrations of the drug. The amount of luciferase activity produced in infected target host cells in the presence of varying concentrations of drug was compared to the amount of luciferase produced in infected target host cells in the absence of drug. “Drug resistance” was measured as the amount of drug required to inhibit by 50% the luciferase activity detected in the absence of drug (inhibitory concentration 50%, IC50). The IC50 values were determined by plotting percent drug inhibition vs. log10 drug concentration. Stimulation of viral replication was measured as the percent increase in luciferase activity detected when infection occurs in the presence of drug as compared to in the absence of drug.
(§2) Host cells were seeded in 10-cm-diameter dishes and were transfected several days after plating with resistance test vector plasmid DNA and the envelope expression vector. Transfections were performed using a calcium-phosphate precipitation procedure. The cell culture media containing the DNA precipitate was replaced with fresh medium, from one to 24 hours, after transfection. Cell culture media containing resistance test vector viral particles was harvested one to four days after transfection and was passed through a […] filter before being used to infect target host cells, or being stored at −80° C. HIV capsid protein (p24) levels in the harvested cell culture media were determined by an EIA method as described by the manufacturer (SAIC; Frederick, Md.). Before infection, target cells (293 and 293/T) were plated in cell culture media. Control infections were performed using cell culture media from mock transfections (no DNA) or transfections containing the resistance test vector plasmid DNA without the envelope expression plasmid. One to three or more days after infection, the media was removed and cell lysis buffer (Promega) was added to each well. Cell lysates were assayed for luciferase activity (FIG. 3). The inhibitory effect of the drug was determined using the following equation:
(§3) % luciferase inhibition=1−(RLUluc[drug]÷RLUluc)×100
(§4) where RLUluc [drug] is the Relative Light Unit of luciferase activity in infected cells in the presence of drug, and RLUluc is the Relative Light Unit of luciferase activity in infected cells in the absence of drug. IC50values were obtained from the sigmoidal curves that were generated from the data by plotting the percent inhibition of luciferase activity vs. the log10 drug concentration. The percent luciferase stimulation is the negative of the % inhibition calculated using the formula above.
A resistance test vector containing three mutations, K103N, I135T and V245E (RTV-K103N/I135T/V245E) was constructed and tested in the phenotypic assay described earlier. The results were compared to those determined using a genetically defined resistance test vector that was wild type at positions 103, 135 and 245. We determined the pattern of phenotypic susceptibility to the NNRTIs, delavirdine, nevirapine and efavirenz, in RTV-K103N.

RTV-013522/270I = experiment: Phenotypic susceptibility assay, RTV-013522/270I; format: cell-based, HIV; conditions: RTV-013522 with I270S reverted
Description: as §1, §2, §3, §4
A resistance test vector containing all of the mutations present in […] except for the I270S (RTV-013522/270I) was constructed and tested using the phenotypic assay described earlier. The results were compared to those determined using the parent RTV-013522. We determined the pattern of phenotypic susceptibility to the NNRTIs, delavirdine, nevirapine and efavirenz, in the reverted vector RTV-013522/270I. […] In this patient sample the correlation of drug-dependent stimulation of viral replication with the mutation at I270S is very striking. […]

[1] = tested on: Patient-derived resistance test vectors containing mutations at 241 in addition to other NNRTI-resistance mutations; experiment: Phenotypic susceptibility assay, patient-derived RTVs with mutations at 241; format: cell-based, HIV; conditions: 241 plus e.g. 101, 103, 106, 135, 138, 190
Description: The resistance test vectors containing a functional luciferase gene cassette were constructed and host cells were transfected with the resistance test vector DNA. The resistant test vectors contained patient-derived reverse transcriptase and protease sequences that were either susceptible or resistant to the antiretroviral agents, such as nucleoside reverse transcriptase inhibitors, (NRTIs) non-nucleoside reverse transcriptase inhibitors (NRTIs) and protease inhibitors. […] The IC50 values were determined by plotting percent drug inhibition vs. log10 drug concentration. Stimulation of viral replication was measured as the percent increase in luciferase activity detected when infection occurs in the presence of drug as compared to in the absence of drug.
Host cells were seeded in 10-cm-diameter dishes and were transfected several days after plating with resistance test vector plasmid DNA and the envelope expression vector. […] HIV capsid protein (p24) levels in the harvested cell culture media were determined by an EIA method as described by the manufacturer (SAIC; Frederick, Md.). […] The inhibitory effect of the drug was determined using the following equation: […]

codon 181 mutant HIV-1 = conditions: cited from earlier work
viral load = experiment: Viral load measurements in patient (Example 14); format: in vivo
P236L substitution RT = P236L substitution RT (Human immunodeficiency virus type 1 group M subtype B, UniProt P04585, P823L); conditions: cited from earlier work

## CC(C)Nc1cccnc1N1CCN(C(=O)c2cc3cc(NS(C)(=O)=O)ccc3[nH]2)CC1 [delavirdine]
RTV-K103N/I135T/V245E
  drug-dependent stimulation of viral replication: ~20%
  reductions in susceptibility compared to wild type control RTV: 169 fold
RTV-013522/270I
  drug-dependent stimulation of viral replication: no longer exhibiting negative inhibition
  reductions in susceptibility compared to wild type control RTV: 40 fold

## O=C1Nc2ccc(Cl)cc2[C@@](C#CC2CC2)(C(F)(F)F)O1 [efavirenz]
RTV-K103N/I135T/V245E
  drug-dependent stimulation of viral replication: no drug-dependent stimulation and not
  reductions in susceptibility compared to wild type control RTV: 93 fold
[1]
  reductions in susceptibility: > 470 fold
RTV-013522/270I
  drug-dependent stimulation of viral replication: no longer exhibiting negative inhibition
  reductions in susceptibility compared to wild type control RTV: 8 fold
Codon 181 mutant HIV-1
  susceptibility / activity in the presence of the Y181C mutation: retains activity

## Cc1ccnc2c1NC(=O)c1cccnc1N2C1CC1 [nevirapine]
Viral load; patient on d4T, nevirapine, nelfinavir, saquinavir, baseline ~1,200,000 copies/ml
  viral load after removal of nevirapine from the regimen: < 300,000 copies/ml
Viral load; same patient
  reduction in viral load after removal of nevirapine from the regimen: 4 fold
RTV-K103N/I135T/V245E
  drug-dependent stimulation of viral replication: ~15%
  reductions in susceptibility compared to wild type control RTV: 244 fold
[1]
  reductions in susceptibility: > 600 fold
RTV-013522/270I
  drug-dependent stimulation of viral replication: no longer exhibiting negative inhibition
  reductions in susceptibility compared to wild type control RTV: 14 fold
Codon 181 mutant HIV-1; Y181C mutation
  reduction in sensitivity: 100 fold
P236L substitution RT
  reduction of the IC50: 7- to 10 fold
